Our source for the TGI values is PubChem BioAssay (NCI).

Some test systems named below: EKVX NSCLC; OVCAR-4 ovarian; M14 melanoma; SF-295 CNS; SR leukemia; KM20L2 colon; UO-31 renal; M19-MEL melanoma; CCRF-CEM leukemia; OVCAR-5 ovarian; RPMI-8226 leukemia.
Common to all, as to assay: NCI-60 cell line screen, 48 h

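Five compound concentrations were applied to cells in 96-well plates for 48 hours; endpoints were derived by simple linear interpolation of the resulting dose-response curve. TGI denotes the concentration required for complete inhibition of growth.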

Consider `NC(N)=Nc1nc2cc(N)ccc2o1`, for which the TGI in the assay with EKVX NSCLC, with OVCAR-4 ovarian, in the assay on M14 melanoma, with SF-295 CNS, with SR leukemia and with KM20L2 colon was over 100 µM in each case. The TGI with UO-31 renal, with M19-MEL melanoma and in the assay with CCRF-CEM leukemia was over 100 µM throughout.

Regarding `COC(=O)C1=C(SC)SC2(C(=O)OC)C3C=C(C)C4C(N13)C42C(=O)OC` (stereo not given), the TGI with OVCAR-5 ovarian, in the assay with EKVX NSCLC, with M14 melanoma, in the assay on SF-295 CNS, in the assay on RPMI-8226 leukemia and in the assay with SR leukemia was over 100 µM throughout. Besides, the TGI in the assay with KM20L2 colon, in the assay on UO-31 renal, in the assay with M19-MEL melanoma and with CCRF-CEM leukemia was over 100 µM each time.

As to `N#CC1(Cc2ccccc2Cl)c2ccccc2C=CN1C(=O)c1ccccc1` (stereo not given), the TGI in the assay on OVCAR-5 ovarian, with EKVX NSCLC, in the assay with M14 melanoma, in the assay with SF-295 CNS, in the assay with RPMI-8226 leukemia and in the assay with SR leukemia was over 100 µM throughout. Further, the TGI in the assay with KM20L2 colon, with UO-31 renal, in the assay on M19-MEL melanoma and in the assay with CCRF-CEM leukemia was over 100 µM in each case.

`c1cc(C2O[C@H]3CCCN3[C@@H]2c2ccncc2)ccn1` (stereo not given in full): the TGI with OVCAR-5 ovarian, in the assay with EKVX NSCLC, with OVCAR-4 ovarian, with M14 melanoma, in the assay on SF-295 CNS and in the assay with RPMI-8226 leukemia was over 100 µM each time. Further, the TGI in the assay with KM20L2 colon, in the assay with UO-31 renal, with M19-MEL melanoma and in the assay with CCRF-CEM leukemia was over 100 µM in each case.

As for `Cc1cc(C)cc(NC(=O)CCC(=O)C2CCC/C2=N\NC(=O)C(=O)NN)c1` (stereo not given), the TGI in the assay with OVCAR-5 ovarian, in the assay on EKVX NSCLC, in the assay on OVCAR-4 ovarian, with M14 melanoma, in the assay with SF-295 CNS and with RPMI-8226 leukemia was over 100 µM each time. In addition, the TGI in the assay on KM20L2 colon, in the assay on UO-31 renal, in the assay on M19-MEL melanoma and in the assay with CCRF-CEM leukemia was over 100 µM in each case.

Turning to `O=c1c2ccccc2oc2nccnc12`, the TGI in the assay on OVCAR-5 ovarian, with EKVX NSCLC, in the assay on OVCAR-4 ovarian, in the assay with M14 melanoma, in the assay on SF-295 CNS and in the assay with RPMI-8226 leukemia was over 100 µM throughout. The TGI with KM20L2 colon, in the assay on UO-31 renal, in the assay on M19-MEL melanoma and in the assay with CCRF-CEM leukemia was over 100 µM throughout.

As to `O=C(Nc1ccc(Cl)cc1Cl)c1c/c(=N\O)c2ccc(O)cc2o1`, the TGI in the assay with OVCAR-5 ovarian, in the assay with OVCAR-4 ovarian, with M14 melanoma, in the assay on SF-295 CNS, with RPMI-8226 leukemia and with SR leukemia was over 100 µM throughout. Moreover, the TGI in the assay on KM20L2 colon, with UO-31 renal, with M19-MEL melanoma and with CCRF-CEM leukemia was over 100 µM throughout.

With `CC1=NN(C(=O)CC(=O)Nc2ccccc2)C(=O)C1N=Nc1ccc(S(N)(=O)=O)cc1` (stereo not given), the TGI with OVCAR-5 ovarian, in the assay with EKVX NSCLC, in the assay with OVCAR-4 ovarian, with M14 melanoma, in the assay with SF-295 CNS and with RPMI-8226 leukemia was over 100 µM each time. In addition, the TGI in the assay on SR leukemia, with KM20L2 colon, in the assay on UO-31 renal and in the assay with CCRF-CEM leukemia was over 100 µM throughout.

For `COc1ccc(/C=N\N2C(=O)Cc3ccccc32)cc1`, the TGI in the assay on OVCAR-5 ovarian, in the assay on EKVX NSCLC, in the assay with OVCAR-4 ovarian, in the assay on M14 melanoma, in the assay on SF-295 CNS and in the assay on RPMI-8226 leukemia was over 100 µM in each case. In addition, the TGI in the assay with KM20L2 colon, with UO-31 renal, in the assay on M19-MEL melanoma and with CCRF-CEM leukemia was over 100 µM in each case.

Consider `COc1ncn(C2C=C(CO)C(O)C2O)c(=O)n1` (stereo not given), for which the TGI in the assay on EKVX NSCLC, in the assay with OVCAR-4 ovarian, in the assay on M14 melanoma, with RPMI-8226 leukemia, in the assay with KM20L2 colon and in the assay with UO-31 renal was over 100 µM in each case.

`CC(=O)OC1CC[C@@]2(C)C(CC(OC3OC(CO)C(O)C(O)C3O)[C@]3(C)C2CCC24CC23CC[C@H]4C(C)CC(O)[C@@H](O)C(C)(C)O)C1(C)C` (stereo not given in full): the TGI in the assay on OVCAR-5 ovarian is over 50 µM; with EKVX NSCLC it was 48.6 µM; with OVCAR-4 ovarian, over 50 µM; with M14 melanoma, 22.6 µM; in the assay with SF-295 CNS, over 50 µM; in the assay with RPMI-8226 leukemia, 24.8 µM. Further, the TGI was over 50 µM in the assay on KM20L2 colon, over 50 µM in the assay on UO-31 renal, 16 µM in the assay on M19-MEL melanoma and 25.7 µM in the assay with CCRF-CEM leukemia.

As for `C[N+](C)(C)CC(=O)NC(=O)N/N=C\C(CC#N)CN(Cc1ccccc1)Cc1ccccc1` (stereo not given), the TGI with OVCAR-5 ovarian, with EKVX NSCLC, in the assay on OVCAR-4 ovarian, with M14 melanoma, in the assay with SF-295 CNS and with SR leukemia was over 100 µM throughout. Besides, the TGI in the assay with KM20L2 colon, in the assay on UO-31 renal, with M19-MEL melanoma and in the assay on CCRF-CEM leukemia was over 100 µM each time.

For `O=C(CCCCCCCCC(=O)OCCCn1cc(C(=O)NC(=O)OCc2ccccc2)c(=O)[nH]c1=O)OCCCn1cc(C(=O)NC(=O)OCc2ccccc2)c(=O)[nH]c1=O`, the TGI with OVCAR-5 ovarian, in the assay with EKVX NSCLC, with OVCAR-4 ovarian, with M14 melanoma, in the assay with SF-295 CNS and in the assay on RPMI-8226 leukemia was over 100 µM in each case. Also, the TGI in the assay with KM20L2 colon, in the assay with UO-31 renal, with M19-MEL melanoma and in the assay on CCRF-CEM leukemia was over 100 µM throughout.
